# Measured values reported in publication PMC11375794, “Discovery of new Hsp90–Cdc37 protein–protein interaction inhibitors: in silico screening and optimization of anticancer activity” (RSC Advances, 2024).
# Experiments:
# leukemia cell line THP-1 = assay: MTS cell viability (antiproliferative) assay in THP-1; format: cell-based; conditions: mean ± SD; for THP-1 IC50: 72 hours; for IC50: Homo sapiens, THP-1, 72 hours
# Procedure: Hormone-positive breast cancer cell line MCF-7 (ATCC-HTB-22; ATCC) was grown in Dulbecco's Modified Eagle's Medium (DMEM), while Ewing sarcoma cell line SK-N-MC (a kind gift from Beat Schäfer) and THP-1 (ATCC-TIB-202; ATCC) cells were grown in Roswell Park Memorial Institute (RPMI) 1640. The medium was supplemented with 10% heat-inactivated fetal bovine serum (Gibco, Thermo Fisher Scientific, Waltham, MA, USA), 100 U per mL penicillin, 100 μg per mL streptomycin, and 2 mM L-glutamine (all from Sigma-Aldrich, St. Louis, MO, USA). All cell lines were incubated at 37 °C in a 5% CO2 atmosphere.
# The antiproliferative activity of the compounds was evaluated against MCF-7 (ATCC-HTB-22; ATCC), SK-N-MC (a kind gift from Beat Schäfer) and THP-1 (ATCC-TIB-202; ATCC) cancer cell lines using the MTS assay (Promega, Madison, WI, USA). Cells were seeded in 96-well plates at a density of 2 × 10^4 cells per mL in 100 μL of growth medium for THP-1 and were treated with compounds and controls directly, while 3 × 10^3 cells per mL for MCF-7 and SK-N-MC were seeded in 100 μL of growth medium and allowed to adhere overnight following the treatment. In all cases the cells were treated with respective newly prepared compounds, positive controls (17-DMAG for MCF-7 and SK-N-MC; PU-H71 for THP-1) and a vehicle control (0.5% DMSO). The incubation time after treatment was 72 hours, then CellTiter96® Aqueous One Solution Reagent (Promega, Madison, WI, USA) was added to each well. Following a 3 hours incubation, absorbance was measured at 492 nm using BioTek's Synergy™ 4 Hybrid Microplate Reader (Winooski, VT, USA). The measurements were performed in two biological repetitions and each time the experiment was performed in a triplicate. The IC50 values, representing the concentration of inhibitor required for half-maximal inhibition, are the average of three independent experiments and were calculated using GraphPad Prism 9.5.0 software (San Diego, CA, USA).
# [1] = target: T1, full-length Hsp90β and Cdc37 (Homo sapiens, UniProt P08238); assay: MST PPI inhibition evaluation: Kd for Hsp90β in the presence of Cdc37; format: binding
# T1 construct: host or cells: Escherichia coli strain Rosetta (Hsp90β)
# Procedure: The full-length Hsp90β was labeled using the Monolith His-Tag Labeling Kit RED-tris-NTA following the manufacturer's instructions (NanoTemper Technologies GmbH, Munich, Germany). The proteins were first diluted to a concentration of 8 nM in assay buffer (50 mM Tris–HCl, pH 7.4, containing 150 mM NaCl, 5% ethanol, and 10 mM MgCl2). To determine the Kd values, the proteins were mixed with the test compounds in a 1 : 1 ratio as stated in the manufacturers protocol. The final concentration of Hsp90β was 4 nM, with compounds added in the following ranges: 1000 μM to 5.86 μM for 8c; 312.5 μM to 0.15 μM for 13g and 125 μM to 3.91 μM for 1. Two independent Kd determinations were performed for compounds 8c and 13g. […] Next, Cdc37 (AR09008PUN, OriGene Technologies, Inc., Rockville, MD, USA) was acquired for the purpose of PPI inhibition evaluation between full-length Hsp90β and Cdc37. […] In all experiments the compounds were incubated with the proteins for 15 minutes in the dark at room temperature. The mixtures were then loaded into Monolith NT.115 Premium Capillaries (NanoTemper Technologies GmbH, Munich, Germany). Thermophoresis was induced at 1475 ± 15 nm and measured using a Monolith NT.115 pico instrument (NanoTemper Technologies GmbH, Munich, Germany). Measurements were conducted at ambient temperature (24–25 °C), with excitation power set to 20% and MST power set to 40%, and a laser on time of 5 seconds. To calculate the Kd values, the average fluorescence responses for each concentration were plotted against the logarithm of compound concentrate on using GraphPad Prism software (GraphPad Software, Inc., La Jolla, CA).
# full-length Hsp90β = target: T2, full-length Hsp90β (Homo sapiens, UniProt P08238); assay: Ligand-observed protein NMR (STD, trNOESY) with Hsp90β; format: binding; conditions: for STD amplification factor (AMP): Hsp90β : ligand 1 : 200
# T2 construct: For the protein expression of full-length Hsp90β, we received plasmids as a kind gift; made in house; host or cells: Escherichia coli strain Rosetta
# Procedure: High-resolution NMR spectra of 13g were recorded using a Bruker Avance Neo 600 MHz spectrometer with a cryoprobe at 25 °C. Data collection employed pulse sequences from the Bruker library, and analysis was conducted using Bruker Topspin 4.2.0. The residual water signal was suppressed by excitation sculpting[54] with a 5 ms selective pulse, and a T1ρ filter of 100 ms was used to remove background protein resonances. The ^1H spectral widths were set at 5263 Hz. NMR samples were prepared in a buffer containing 50 mM potassium phosphate (pD 7.5), 100 mM KCl in D2O, 5 mM MgSO4, 2 mM DTT-d10, 0.02% NaN3, and 2% DMSO-d6. Full proton assignment (see ESI Fig. S6 and Table S2 ^†) was achieved using TOCSY, NOESY, ROESY, and HSQC spectra. The ^1H STD spectra were recorded with a protein : ligand ratio of 1 : 200, with protein and ligand concentrations of […] and 3 mM.
# For the ^1H STD ligand epitope mapping experiments,[55] 65 536 data points (6.23 s and acquisition time) were used, with a relaxation delay of 1.63 s and 5120 scans. A short protein saturation time of 0.5 s was utilized to minimize the effect of relaxation on the STD amplification factors.[56] Selective on-resonance saturation of Hsp90β was performed at −0.827 ppm, with the transmitter offset referenced to 4.70 ppm. Off-resonance irradiation for the reference spectrum was applied at 30 ppm. The spectra were zero-filled and apodized using an exponential line-broadening function of 3 Hz. Errors in the STD amplification factor were estimated using the specified formula:[57] [drawing 46] NSTD and NREF are noise levels in STD and reference spectra. ISTD and IREF are signal intensities in STD and reference spectra. The relative errors of the STD amplification factors (Tables S3 and S6 ^†) for all protons are below 4%.
# The trNOESY[58] spectra were recorded with 4096 data points in t2, 64 scans, 360 complex points in t1, and a relaxation delay of 1.5 s. […] The spectra were apodized with a squared sine bell function shifted by π/2 in both dimensions. Distances for 13g were calculated from the cross-peak volumes, assuming the integrated intensity of proton pairs 2′, 4′ and 1′, 5′ in the para-substituted phenyl ring with a distance of 2.5 Å and that the distances of the protons in pyrimidine ring are the same.
# T1 sequence (P08238 whole entry): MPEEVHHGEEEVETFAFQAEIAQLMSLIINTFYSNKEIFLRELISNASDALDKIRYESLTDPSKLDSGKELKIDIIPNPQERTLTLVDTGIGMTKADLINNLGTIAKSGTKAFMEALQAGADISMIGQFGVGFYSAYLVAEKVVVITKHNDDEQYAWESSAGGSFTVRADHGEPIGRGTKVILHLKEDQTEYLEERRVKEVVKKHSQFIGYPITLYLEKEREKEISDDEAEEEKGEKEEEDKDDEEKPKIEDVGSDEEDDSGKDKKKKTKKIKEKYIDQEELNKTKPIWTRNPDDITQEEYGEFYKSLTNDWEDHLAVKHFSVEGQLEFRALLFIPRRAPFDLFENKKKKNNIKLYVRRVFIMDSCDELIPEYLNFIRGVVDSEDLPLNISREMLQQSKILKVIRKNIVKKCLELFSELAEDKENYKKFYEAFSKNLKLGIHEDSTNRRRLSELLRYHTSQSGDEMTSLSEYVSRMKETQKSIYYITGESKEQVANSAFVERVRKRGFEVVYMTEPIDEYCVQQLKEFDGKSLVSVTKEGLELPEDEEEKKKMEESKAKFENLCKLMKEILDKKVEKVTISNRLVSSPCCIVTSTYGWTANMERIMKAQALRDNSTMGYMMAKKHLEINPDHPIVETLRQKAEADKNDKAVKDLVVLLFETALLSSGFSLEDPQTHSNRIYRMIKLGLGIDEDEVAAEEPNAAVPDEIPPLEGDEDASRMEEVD
# T2 sequence (P08238 whole entry): as above
SMILES,THP-1 IC50 (leukemia cell line THP-1),IC50 (leukemia cell line THP-1) [µM],Kd ([1]; 0.5 μM Cdc37) [µM],Kd ([1]; 1.0 μM Cdc37) [µM],Kd ([1]; 2.0 μM Cdc37) [µM],Kd (Hsp90β) in presence of Cdc37 ([1]; 1.0 μM Cdc37),binding to Hsp90β by transferred NOESY (trNOESY) (full-length Hsp90β; negative NOEs in the presence of Hsp90β),STD amplification factor (AMP) (full-length Hsp90β; proton 1''),STD amplification factor (AMP) (full-length Hsp90β; proton 3''),"STD amplification factor (AMP) (full-length Hsp90β; protons 1', 5')","STD amplification factor (AMP) (full-length Hsp90β; protons 1, 5)","STD amplification factor (AMP) (full-length Hsp90β; protons 2', 4')","STD amplification factor (AMP) (full-length Hsp90β; protons 2,3,4)"
"CN(CCOc1ccccc1)C(=O)c1csc(Nc2cc(N3CCNCC3)ncn2)n1 [Compound 8c, N-Methyl-N-(2-phenoxyethyl)-2-((6-(piperazin-1-yl)pyrimidin-4-yl)amino)thiazole-4-carboxamide]",retained some inhibitory activity,33.9 ± 8.5,81.7,90.2,98.2,,,,,,,,
"O=C(NCCOc1ccccc1)c1ccc(Nc2cc(N3CCNCC3)ncn2)cc1 [Compound 13g, N-(2-Phenoxyethyl)-4-((6-(piperazin-1-yl)pyrimidin-4-yl)amino)benzamide]",retained some inhibitory activity,41.5 ± 6.3,,,,too low for quantification,confirmed,0.83,4.88,1.75,2.18,1.78,2.14
